Test results as given in article PMC5504166, “Rosmarinic Acid Protects against Inflammation and Cardiomyocyte Apoptosis during Myocardial Ischemia/Reperfusion Injury by Activating Peroxisome Proliferator-Activated Receptor Gamma” (Frontiers in Pharmacology, 2017).

What was measured:
PPARγ = target: T1, PPARγ (Homo sapiens, UniProt P37231); test: PolarScreen PPAR Gamma Competitor Assay, Green (fluorescence polarization competition); assay type: binding; conditions: read-out: EC50 (mean ± SD μM)
T1 construct: gene PPARG
T1 sequence (P37231 1-505): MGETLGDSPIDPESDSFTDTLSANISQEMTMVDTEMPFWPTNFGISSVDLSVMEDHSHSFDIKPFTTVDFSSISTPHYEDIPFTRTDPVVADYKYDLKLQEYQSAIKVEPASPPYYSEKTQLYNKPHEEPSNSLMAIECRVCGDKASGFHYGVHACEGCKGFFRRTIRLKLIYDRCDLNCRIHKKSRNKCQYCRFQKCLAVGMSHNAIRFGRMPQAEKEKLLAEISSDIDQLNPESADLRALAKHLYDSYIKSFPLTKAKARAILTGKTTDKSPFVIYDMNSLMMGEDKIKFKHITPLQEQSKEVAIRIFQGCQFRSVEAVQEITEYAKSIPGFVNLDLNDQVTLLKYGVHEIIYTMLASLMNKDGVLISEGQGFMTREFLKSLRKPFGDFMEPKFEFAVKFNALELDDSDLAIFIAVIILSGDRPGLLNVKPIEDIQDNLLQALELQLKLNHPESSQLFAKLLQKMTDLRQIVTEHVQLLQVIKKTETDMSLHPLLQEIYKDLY

[1] = target: T2, PTGS2/COX2 (Prostaglandin G/H synthase 2) (Ovis aries, UniProt P79208); test: Colorimetric COX (ovine) inhibitor screening assay kit (Cayman); assay type: biochemical; conditions: read-out: IC50 (mean ± SD μM)
T2 sequence (P79208 17-603): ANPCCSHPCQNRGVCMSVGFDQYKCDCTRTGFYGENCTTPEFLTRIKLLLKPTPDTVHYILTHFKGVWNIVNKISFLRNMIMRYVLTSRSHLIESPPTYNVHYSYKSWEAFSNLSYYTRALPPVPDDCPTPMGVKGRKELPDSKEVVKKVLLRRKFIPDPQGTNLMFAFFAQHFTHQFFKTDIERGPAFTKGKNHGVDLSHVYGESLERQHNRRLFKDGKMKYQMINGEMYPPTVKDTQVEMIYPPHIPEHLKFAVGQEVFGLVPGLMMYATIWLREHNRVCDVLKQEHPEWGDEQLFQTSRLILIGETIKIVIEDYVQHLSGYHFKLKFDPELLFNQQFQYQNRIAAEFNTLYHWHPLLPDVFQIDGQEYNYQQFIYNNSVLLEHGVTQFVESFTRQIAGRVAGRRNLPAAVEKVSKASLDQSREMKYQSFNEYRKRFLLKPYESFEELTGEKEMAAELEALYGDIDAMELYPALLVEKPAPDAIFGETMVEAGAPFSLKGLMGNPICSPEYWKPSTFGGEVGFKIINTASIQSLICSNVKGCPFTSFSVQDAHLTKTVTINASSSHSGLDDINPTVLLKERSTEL

## O=C(/C=C/c1ccc(O)c(O)c1)O[C@H](Cc1ccc(O)c(O)c1)C(=O)O [RosA, Rosmarinic acid]
PPARγ
  EC50: 55.8 ± 3.45 µM
[1]
  IC50: 170 ± 9.18 µM
